For data set [1] the following is noted: for Energy Content / Pump Octane (R + M)/2: 10% blend in gasoline; for Pump Octane (R + M)/2: RBOB with Pump Octane 80.85 and RVP 7.37; for Reid Vapor Pressure: measured with 9.5% volumetric blend in RBOB.
The conditions of data set [2]: based on literature review; cited from earlier work.
Data set [3] in a line: Physical properties of alcohol fuels and gasoline. In kind it is physicochemical.
Data set [4] is described as follows: Fuel properties of the neat fuel. The note with it: for Pump Octane (R + M)/2: extrapolated from tests on blended fuels (blending octanes).
A short description of data set [5]: Ether fuel testing (ULSD and hexadecane blends, neat ether). The data set is classed as physicochemical.
Data set [6] in a line: Endpoint assay for acetolactate synthase activity with pyruvate as substrate. The data set is classed as biochemical. The note with it: colorimetric detection at 546 nm, expressed in yeast. The protocol: FIG. 23 (a-d.) Endpoint assays for acetolactate synthase activity were carried out using pyruvate as substrate. The resulting acetolactate was converted to […] under acidic conditions. Acetone was reacted with α-naphtha for colorimetric detection at 546 nm. […] The reaction was only moderately subject to feedback inhibition by leucine, isoleucine and valine (b, c and d) which could be due to longer reaction times.

The nature of data set [7]: Keto acid decarboxylase activity on 2-keto butyrate, NADH dependent coupled assay with yeast ADH1. The data set is classed as biochemical. The method, then:
(§1) The Lactococcus lactis KdcA and S. cerevisiae and P. stipitis PDCs were cloned into yeast expression vector p415 under the control of TEF promoter. The host strain was a PDC1 deletion strain. Crude extracts were prepared for enzymatic assays by incubating cell pellet with CelLytic (Sigma), followed by bead beating. The decarboxylase reaction was performed in 100 mM Citrate Phosphate buffer with 1 mM Thiamine diphosphate, 1 mM MgCl2 and 50 μM to 20 mM aldehyde. The assay was coupled to an alcohol dehydrogenase which enabled continuous monitoring of NADH or NADPH oxidation at 340 nm.
NADH dependent coupled assays with yeast ADH1 were carried out to determine the decarboxylase activity of yeast and heterologous enzymes on the substrate 2 keto butyrate (2KB). 2KB is an intermediate in the production of 2-methylbutanol. A high decarboxylase activity on 2KB can lead to its conversion to propanal and reduce the yield of 2-MBO. […] (See FIG. 25 a-g.) The enzyme with the lowest Km for 2-ketobutyrate is yeast PDC1 and therefore the corresponding gene needs to be deleted in the 2-MBO production strain (data not shown).

Data set [8] in a line: Keto acid decarboxylase activity on 2-keto-3-methylvalerate, PDC/KDC-ADH6 coupled assay with crude extracts. The data set is classed as biochemical. The note with it: for Km: enzyme expressed from p415 TEF in S. cerevisiae PDC1 deletion strain, read-out: Km 2 keto 3 methyl valerate. The protocol: as §1
The substrate specificity of the crude extract overexpressing different PDC/Kdcs was tested with a broad range of aldehydes. This included acetaldehyde, butyraldehyde and 2-methylbutyraldehyde. The concentration of the aldehydes was varied from 50 μM to 20 mM to determine the Km and Vmax values.
2-keto-3-methylvalerate (2K3MV) was tested for decarboxylation and subsequent reduction using PDC/KDC-ADH6 coupled assays.

The nature of data set [9]: Keto acid decarboxylase activity on pyruvate, crude extracts. In kind it is biochemical. As to conditions: crude extract, S. cerevisiae PDC1 deletion host; sigmoidal curves. The method, then:
as §1
Pyruvate is the target for multiple enzymes and a decarboxylation of the compound can lead to the production of acetaldehyde and subsequently ethanol. To prevent decarboxylation of pyruvate and increase 2-MBO production, a keto acid decarboxylase with a very high Km for pyruvate is ideal. […] The kinetic curves obtained with pyruvate as substrate were sigmoidal. This could be due to the fact that there are multiple enzymes in the crude extract with different Km for pyruvate. The final curve is therefore the superposition of individual curves. Absolute Km values […]. (FIG. 26.)

The nature of data set [10]: Enzyme assays of overexpressed ADH6 and ADH7 with crude extracts. The note with it: NADPH dependent. In kind it is biochemical. The protocol:
Yeast ADH6 and ADH7 have been reported as broad substrate specificity alcohol dehydrogenases. These enzymes were therefore overexpressed in S. cerevisiae under the control of TEF promoter and enzyme assays were carried out with crude extracts. Both ADH6 and ADH7 were active on 2-methylbutanal and were NADPH dependent reductases.

Data set [11] in a line: Aldehyde reductase assay of purified ADH6 on 2-methyl butyraldehyde. The data set is classed as biochemical. The protocol:
Enzyme assays for aldehyde reductase activity were carried out in 100 mM citrate phosphate buffer pH6.2, 0.5 mM NADPH and 0.05 to 20 mM substrate (acetaldehyde or 2-methylbutanal). The reaction was monitored for 5 minutes at 340 nm for oxidation of NADPH to NADP+.

Setting [12] is: crude extract, S. cerevisiae PDC1 deletion host.

Read-outs that look alike come from different tables or passages of the source. Where only a bound is given, the exact number is not on record here.

`CCC(C)CO` (stereo not drawn) [2-MBO, 2-methyl-1-butanol]: in [1], the “Energy Content” value was 113,963 BTU/gal, the “Pump Octane (R + M)/2” value was determined as 83.0 and the “Reid Vapor Pressure” value is given as ~7^B psi. For the same molecule, in data set [2], the “Fuel Solubility in Water” value is recorded as 3 wt % and the “Water Solubility in Fuel” value is on record as 9 wt %. Further, in data set [3], the “Boiling Point, max” value worked out at 130 °C; the “Flash Point, min” value came to 43 °C; the “Freezing Point, max” value is −70 °C. In data set [4], the “Energy Content” value was 113,627 BTU/gal, the “Reid Vapor Pressure” value was found to be 2.3 psi and the “Pump Octane (R + M)/2” value is listed as 102.0.
On to `CCC(C)COCC(C)CC` (stereo not drawn) [2MBO-ether, 2-methyl-1-(2-methylbutoxy)butane], for which, in [5], the Flash is 118 ° F and the “Solubility in Water” value is given as below 500 ppm.
Take `CC(C)CCO` [3-MBO, 3-methyl-1-butanol]: in [1], the “Energy Content” value is 113,824 BTU/gal, the “Pump Octane (R + M)/2” value came to 82.0 and the “Reid Vapor Pressure” value is reported as ~7^B psi. In [2], the “Fuel Solubility in Water” value was 2 wt % and the “Water Solubility in Fuel” value was 9 wt %. Further, in data set [3], the “Boiling Point, max” value was 130 °C; the “Flash Point, min” value was 43 °C; the “Freezing Point, max” value is −117 °C. In data set [4], the “Energy Content” value is on record as 112,240 BTU/gal, the “Reid Vapor Pressure” value is reported as 2.3 psi and the “Pump Octane (R + M)/2” value was 101.0.
For `CCCCCCCCCCCCCCCC` [Hexadecane, reference compound], in [5], the wear scar diameter stood at 534 µm.

B1: E. coli ilvG: Acetolactate synthase II, large subunit [Escherichia coli], SEQ ID NO: 39 (protein, listed as Escherichia coli)
chain: MNGAQWVVHALRAQGVNTVFGYPGGAIMPVYDALYDGGVEHLLCRHEQGAAMAAIGYARATGKTGVCIATSGPGATNLITGLADALLDSIPVVAITGQVSAPFIGTDAFQEVDILGLSLACTKHSFLVQSLEELPRIMAEAFDVASSGRPGPVLVDIPKDIQLASGDLEPWFTTVENEVTFPHAEVEQARQMLAKAQKPMLYVGGGVGMAQAVSALREFLAATKMPATCTLKGLGAVEADYPYYLGMLGMHGTKAANFAVQECDLLIAVGARFDDRVTGKLNTFAPHASVIHMDIDPAEMNKLRQAHVALQGDLNALLPALQQPLNINDWQQYCAQLRDEHTWRYDHPGDAIYAPLLLKQLSDRKPADCVVTTDVGQHQMWAAQHIAHTRPENFITSSGLGTMGFGLPAAVGAQVARPNDTVVCISGDGSFMMNVQELGTVKRKQLPLKIVLLDNQRLGMVRQWQQLFFQERYSETTLTDNPDFLMLASAFGIPGQHITRKDQVEAALDTMLNSDGPYLLHVSIDELENVWPLVPPGASNSEMLEKLS
In the case of B1, the “acetolactate synthase activity on pyruvate” value in data set [6] is “minimum activity”.

B2: P. stipitis PDC 3/6: Pyruvate decarboxylase (PDC6) (PDC3) [Pichia stipitis], SEQ ID NO: 53 (protein, listed as Pichia stipitis)
chain: MTPVQETIRLPGTSSPTVPENVTLGEYLFLRISQANPKLRSIFGIPGDFNVDLLEHLYSPVVAGRDIKFIGLCNELNGAYTADGYSRAIGGLSTFISTFGVGELSAINGIAGSFAEFSPVLHIVGTTSLPQRDHAINGSDVRNHHHLIQNKNPLCQPNHDVYKKMIEPISVIQESLDSDLQRNMEKIDRVLVKILQESRPGYLFIPCDITNLIVPSYRLYETPLPLEIQLTTSGVEVLEDVVDAILFRLYKSKNPSLLSDCLTTRFNLQDKLNTLVAKLPSNFVKLFSTNMARNIDESLSNFVGLYFGIGSSSKEVSRQLERNTDFLINLGYFNAETTTAGYSNDFSNIEEYIEINPDYIKVNEHIINIKNPESGKRLFSMGQLLDALLFKLDLNKIENINNNNISYKFFPPTLYEQDNNTDYIPQTKLVDYLNENLQPGDLLVMDTMSFCFALPDIMLPQGVQLLTQNYYGSIGYALPSTFGATMAVNDLGSDRRIILIEGDGAAQMTIQELSSFLKYKEFLPNMPKIFLINNDGYTVERMIKGPTRSYNDINGEWSWTQLLGVFGDKEQKYHSTALLRNVNEFNKYFEFQRQTDNSKLEFIELIAGKYDCPLRFSEMFCKK
Consider B2, for which, in data set [7] (setting [12]), the “Vmax 2 keto butyrate” value came to 5389 µM/min/mg. In addition, the Km – broadly, the concentration of substrate that gives half-maximal velocity – was 6510 µM in [7] (crude extract, enzyme expressed from p415 TEF in S. cerevisiae PDC1 deletion strain); 840 µM in data set [8] (crude extract, listed as P. stipitis PDC3/6); 840 µM in data set [8] (crude extract). Besides, the “Vmax on 2 keto butyrate, fold higher than KDCA” value in data set [7] (relative to L. lactis KdcA) is given as “about 3.4 fold”. The “Vmax 2 keto 3 methyl valerate” value in [8] (setting [12]) was 3359. uM/min/mg. The “Vmax on 2-keto-3-methylvalerate, fold higher than KdcA” value in data set [8] (relative to L. lactis KdcA) was determined as 3.4 fold. For the same molecule, in data set [9], the “Vmax Pyruvate” value was 12624 µM/min/mg.

B3: ADH7: Saccharomyces cerevisiae NADPH-dependent alcohol dehydrogenase ADH7, SEQ ID NO: 72 (protein, listed as Saccharomyces cerevisiae)
chain: MLYPEKFQGIGISNAKDWKHPKLVSFDPKPFGDHDVDVEIEACGICGSDFHIAVGNWGPVPENQILGHEIIGRVVKVGSKCHTGVKIGDRVGVGAQALACFECERCKSDNEQYCTNDHVLTMWTPYKDGYISQGGFASHVRLHEHFAIQIPENIPSPLAAPLLCGGITVFSPLLRNGCGPGKRVGIVGIGGIGHMGILLAKAMGAEVYAFSRGHSKREDSMKLGADHYIAMLEDKGWTEQYSNALDLLVVCSSSLSKVNFDSIVKIMKIGGSIVSIAAPEVNEKLVLKPLGLMGVSISSSAIGSRKEIEQLLKLVSEKNVKIWVEKLPISEEGVSHAFTRMESGDVKYRFTLVDYDKKFHK
For B3, the “activity on 2-methylbutanal” value in [10] is on record as “active”.

B4: E. coli ilvB: Acetolactate synthase I, large subunit [Escherichia coli], SEQ ID NO: 37 (protein, listed as Escherichia coli)
chain: MASSGTTSTRKRFTGAEFIVHFLEQQGIKIVTGIPGGSILPVYDALSQSTQIRHILARHEQGAGFIAQGMARTDGKPAVCMACSGPGATNLVTAIADARLDSIPLICITGQVPASMIGTDAFQEVDTYGISIPITKHNYLVRHIEELPQVMSDAFRIAQSGRPGPVWIDIPKDVQTAVFEIETQPAMAEKAAAPAFSEESIRDAAAMINAAKRPVLYLGGGVINAPARVRELAEKAQLPTTMTLMALGMLPKAHPLSLGMLGMHGVRSTNYILQEADLLIVLGARFDDRAIGKTEQFCPNAKIIHVDIDRAELGKIKQPHVAIQADVDDVLAQLIPLVEAQPRAEWHQLVADLQREFPCPIPKACDPLSHYGLINAVAACVDDNAIITTDVGQHQMWTAQAYPLNRPRQWLTSGGLGTMGFGLPAAIGAALANPDRKVLCFSGDGSLMMNIQEMATASENQLDVKIILMNNEALGLVHQQQSLFYEQGVFAATYPGKINFMQIAAGFGLETCDLNNEADPQASLQEIINRPGPALIHVRIDAEEKVYPMVPPGAANTEMVGE
As for B4, the “acetolactate synthase activity on pyruvate” value in data set [6] is listed as “highest activity”.

B5: ADH6: Saccharomyces cerevisiae alcohol dehydrogenase ADH6, SEQ ID NO: 66 (protein, listed as Saccharomyces cerevisiae)
chain: MSYPEKFEGIAIQSHEDWKNPKKTKYDPKPFYDHDIDIKIEACGVCGSDIHCAAGHWGNMKMPLVVGHEIVGKVVKLGPKSNSGLKVGQRVGVGAQVFSCLECDRCKNDNEPYCTKFVTTYSQPYEDGYVSQGGYANYVRVHEHFVVPIPENIPSHLAAPLLCGGLTVYSPLVRNGCGPGKKVGIVGLGGIGSMGTLISKAMGAETYVISRSSRKREDAMKMGADHYIATLEEGDWGEKYFDTFDLIVVCASSLTDIDFNIMPKAMKVGGRIVSISIPEQHEMLSLKPYGLKAVSISYSALGSIKELNQLLKLVSEKDIKIWVETLPVGEAGVHEAFERMEKGDVRYRFTLVGYDKEFSD
B5: the Km in data set [11] (purified His-tagged enzyme, pH6.2, 0.5 mM NADPH) turned out to be 360 µM. In addition, in data set [11] (purified enzyme), the “Vmax (cofactor oxidation rate) for 2-methyl butyraldehyde, fold higher than acetaldehyde” value amounted to 1.3 fold. Moreover, the “activity on 2-methylbutanal” value in data set [10] is given as “active”.

These data come from patent US8114641B2, “Methylbutanol as an advanced biofuel” (Synthetic Genomics, Inc., priority 2007, dated 2012).
